The text below walks through data of PMC13022235 (Nature Communications, 2026).

The test system of series [1] is chronic constriction injury (CCI) mice. Nature of the series: CCI model, cold allodynia. The series is classed as in vivo, mouse. The conditions noted are these: for reduction of cold allodynia vs vehicle: acetone.
The subject of a further series is male C57BL/6 J mice. As to the kind of experiment: Conditioned place preference. Type of series: in vivo, mouse.
The target in series [2] is T1, hGlyT2^W215F (Homo sapiens, UniProt Q9Y345, W215F).
T1 sequence (Q9Y345 1-797 W215F): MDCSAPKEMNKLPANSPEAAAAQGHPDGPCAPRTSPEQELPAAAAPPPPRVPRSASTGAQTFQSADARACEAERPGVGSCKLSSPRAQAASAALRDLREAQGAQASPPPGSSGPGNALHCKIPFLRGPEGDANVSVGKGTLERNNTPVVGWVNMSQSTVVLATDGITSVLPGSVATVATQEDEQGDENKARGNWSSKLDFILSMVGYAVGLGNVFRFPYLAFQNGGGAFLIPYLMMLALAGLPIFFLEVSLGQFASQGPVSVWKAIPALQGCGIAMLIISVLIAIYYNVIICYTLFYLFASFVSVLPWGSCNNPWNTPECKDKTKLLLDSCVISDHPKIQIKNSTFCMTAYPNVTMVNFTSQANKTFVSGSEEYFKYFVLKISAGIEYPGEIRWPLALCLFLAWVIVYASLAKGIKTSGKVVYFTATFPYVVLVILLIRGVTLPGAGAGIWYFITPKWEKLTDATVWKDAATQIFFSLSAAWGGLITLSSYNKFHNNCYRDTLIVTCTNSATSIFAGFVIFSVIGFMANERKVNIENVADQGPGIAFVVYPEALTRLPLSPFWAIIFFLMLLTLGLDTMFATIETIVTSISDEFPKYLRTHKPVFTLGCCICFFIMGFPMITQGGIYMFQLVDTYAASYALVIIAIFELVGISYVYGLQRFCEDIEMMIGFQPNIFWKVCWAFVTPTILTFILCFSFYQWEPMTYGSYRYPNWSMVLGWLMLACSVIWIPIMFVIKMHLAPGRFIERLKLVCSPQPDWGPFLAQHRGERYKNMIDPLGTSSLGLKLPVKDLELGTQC
Type of series: cell-based.

The target in series [3] is T2, hGlyT2^D633E (Homo sapiens, UniProt Q9Y345, D633E).
T2 sequence (Q9Y345 1-797 D633E): T1 sequence (Q9Y345 1-797 W215F) with F215W, D633E
Type of series: cell-based. The conditions noted are these: D633E mutation.

Series [4] concerns the target T3, hGlyT2^WT (Homo sapiens, UniProt Q9Y345).
T3 sequence (Q9Y345 1-797): T1 sequence (Q9Y345 1-797 W215F) with F215W
As to the kind of experiment: Reversibility from inhibition. Type of series: cell-based.

The target of series [5] is T1, hGlyT2^W215F. As to the kind of experiment: Reversibility from inhibition. Type of series: cell-based.
Series [6] relates to mice. The conditions noted are these: cited from earlier work.
Another series deals with T4, hGlyT1^WT (Homo sapiens, UniProt P48067).
T4 sequence (P48067 1-706): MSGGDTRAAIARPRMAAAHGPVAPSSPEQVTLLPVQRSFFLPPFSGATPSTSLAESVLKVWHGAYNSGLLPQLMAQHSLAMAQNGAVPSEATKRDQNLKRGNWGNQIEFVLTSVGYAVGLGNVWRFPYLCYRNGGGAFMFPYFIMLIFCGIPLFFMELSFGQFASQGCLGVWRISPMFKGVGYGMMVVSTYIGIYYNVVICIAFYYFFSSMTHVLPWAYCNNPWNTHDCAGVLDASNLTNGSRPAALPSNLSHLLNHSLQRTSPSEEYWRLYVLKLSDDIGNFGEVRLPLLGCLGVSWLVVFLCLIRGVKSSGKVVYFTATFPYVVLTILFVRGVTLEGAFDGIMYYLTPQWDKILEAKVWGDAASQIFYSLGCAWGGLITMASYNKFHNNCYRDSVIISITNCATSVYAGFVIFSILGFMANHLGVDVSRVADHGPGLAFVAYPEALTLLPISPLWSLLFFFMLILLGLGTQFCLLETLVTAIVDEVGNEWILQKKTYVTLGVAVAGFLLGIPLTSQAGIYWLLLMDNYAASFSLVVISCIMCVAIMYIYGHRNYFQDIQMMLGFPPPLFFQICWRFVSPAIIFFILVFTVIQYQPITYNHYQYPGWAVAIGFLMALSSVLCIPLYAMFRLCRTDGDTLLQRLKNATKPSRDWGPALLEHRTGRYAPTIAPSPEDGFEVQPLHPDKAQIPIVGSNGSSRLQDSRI
As to the kind of experiment: Two-electrode voltage clamp, GlyT1 selectivity test in oocytes. Type of series: cell-based. The conditions noted are these: 10 µM. On the technique in general: In two-electrode clamp one electrode senses voltage and the other passes current.

The target in series [7] is T3, hGlyT2^WT. The series is classed as cell-based. The following applies: glycine dose-responses with RPI-GLYT2-82.
Series [8] deals with T2, hGlyT2^D633E. Nature of the series: Reversibility from inhibition. Type of series: cell-based. The following applies: GlyT2^D633E.
Series [9] in a line: PK Study 2: in-life plasma and CNS drug exposure after 50 mg/kg i.p. Type of series: in vivo, male C57BL/6 mice. The conditions noted are these: 30 min.
Series [10] concerns chronic constriction injury (CCI) mice. As to the kind of experiment: CCI model, mechanical allodynia. The series is classed as in vivo, mouse.
Series [11] deals with partial sciatic nerve ligation (PSNL) mice. As to the kind of experiment: PSNL model, mechanical allodynia. The conditions noted are these: 50 mg/kg i.p. The series is classed as in vivo, mouse.
In the next series the test system is naïve mice. As to the kind of experiment: Accelerating rotarod, motor coordination. Type of series: in vivo, mouse. (In general: In the rotarod test animals must keep their balance on a rotating rod.)
The test system of series [12] is mice. As to the kind of experiment: Side effect scoring. The series is classed as in vivo, mouse. The conditions noted are these: 250 mg/kg i.p.
Another series has as its system naïve, uninjured mice. As to the kind of experiment: Whole-body plethysmography. The series is classed as in vivo, mouse.
Another series deals with hDAT (Homo sapiens, UniProt Q01959). Nature of the series: Cerep binding assay, displacement of 3H-BTCP. The conditions noted are these: 10 μM. In general terms: In a radioligand displacement assay an active substance lowers the binding of a labelled ligand.
A further series addresses hNET (Homo sapiens, UniProt P23975). Nature of the series: Cerep binding assay, displacement of 3H-nisoxetine. The following applies: 10 μM.
In a further series the test system is GlyT2. The conditions noted are these: read-out: IC50 for GlyT2; cited from earlier work.

Residue numbers refer to the chain shown, from its start. pIC50: −log10 of the molar value. “Also recorded” adds a separate entry of the source.

hNET, sequence (P23975 whole entry): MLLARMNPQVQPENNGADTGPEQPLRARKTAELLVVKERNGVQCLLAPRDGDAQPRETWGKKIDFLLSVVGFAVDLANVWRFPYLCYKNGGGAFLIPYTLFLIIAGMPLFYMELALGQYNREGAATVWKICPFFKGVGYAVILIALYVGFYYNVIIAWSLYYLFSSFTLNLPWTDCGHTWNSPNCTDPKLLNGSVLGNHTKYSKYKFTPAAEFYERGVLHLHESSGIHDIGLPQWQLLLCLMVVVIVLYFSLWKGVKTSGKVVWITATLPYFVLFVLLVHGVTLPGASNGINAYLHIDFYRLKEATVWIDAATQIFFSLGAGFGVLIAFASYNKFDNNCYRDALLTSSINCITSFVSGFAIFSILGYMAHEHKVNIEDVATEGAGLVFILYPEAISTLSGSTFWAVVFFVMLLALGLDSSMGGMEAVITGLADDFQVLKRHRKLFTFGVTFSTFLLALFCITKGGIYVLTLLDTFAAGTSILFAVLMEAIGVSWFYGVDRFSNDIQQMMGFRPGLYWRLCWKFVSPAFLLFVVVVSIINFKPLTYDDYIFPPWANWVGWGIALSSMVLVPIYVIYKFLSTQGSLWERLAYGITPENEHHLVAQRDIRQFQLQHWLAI
hDAT, sequence (Q01959 whole entry): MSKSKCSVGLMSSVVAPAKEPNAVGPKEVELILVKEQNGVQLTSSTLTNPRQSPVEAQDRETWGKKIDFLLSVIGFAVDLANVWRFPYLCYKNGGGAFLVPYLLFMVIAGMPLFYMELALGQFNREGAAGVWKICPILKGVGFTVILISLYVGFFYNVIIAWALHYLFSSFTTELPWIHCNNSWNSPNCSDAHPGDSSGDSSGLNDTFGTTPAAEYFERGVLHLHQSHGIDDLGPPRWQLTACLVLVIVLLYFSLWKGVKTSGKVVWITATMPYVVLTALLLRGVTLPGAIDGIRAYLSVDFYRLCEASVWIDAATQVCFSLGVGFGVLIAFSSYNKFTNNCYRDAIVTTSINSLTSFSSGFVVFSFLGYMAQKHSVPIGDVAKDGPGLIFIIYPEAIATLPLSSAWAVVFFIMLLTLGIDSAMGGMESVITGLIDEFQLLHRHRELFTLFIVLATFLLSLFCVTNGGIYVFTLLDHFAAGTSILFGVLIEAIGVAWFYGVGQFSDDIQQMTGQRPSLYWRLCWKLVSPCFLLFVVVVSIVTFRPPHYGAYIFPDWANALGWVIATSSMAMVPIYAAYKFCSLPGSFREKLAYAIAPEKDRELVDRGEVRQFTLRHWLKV

For the compound `NCC1(CC(=O)O)CCCCC1` [Gabapentin, reference compound], the “reduction of cold allodynia vs vehicle” value in series [1] (gabapentin 100 mg/kg) was “significant at 1-6 hours”.
As to `CN1CC[C@]23c4c5ccc(O)c4O[C@H]2[C@@H](O)C=C[C@H]3[C@H]1C5` [Morphine, reference compound], the “conditioned place preference” value in the series with male C57BL/6 J mice (morphine 10 mg/kg i.p.) is reported as “significant increase in preference for the paired chamber”.
In the case of `COc1cc(C(=O)NCC2(N(C)C)CCCC2)cc(OC)c1OCc1ccccc1` [ORG25543, 4-(benzyloxy)-N-{[1-(dimethylamino)cyclopentyl]methyl}−3,5-dimethoxybenzamide], the “decrease in potency of inhibition vs WT” value on hGlyT2^W215F [2] (W215F mutation) is recorded as “~ three-fold”. For the same compound, the “decrease in potency of inhibition vs WT” value on hGlyT2^D633E [3] was ~ 14 fold. For the same compound, the “reversibility of inhibition” value at hGlyT2^WT [4] (hGlyT2, washout 30 min) is “prolonged inhibitory effects with minimal restoration of glycine-induced currents”. For the same compound, the “currents restored, % of pre-inhibitor levels” value at hGlyT2^WT [4] (hGlyT2^WT, 30 minutes washout) worked out at 12.5%. In addition, the “effect of mutation on washout” value on hGlyT2^W215F [5] (hGlyT2^W215F) is recorded as “significantly increased the rate of ORG25543 washout”. Moreover, in the series on mice [6] (50 mg/kg), the “mechanical allodynia” value is on record as “reversed mechanical allodynia”; the “side effects” value is “near-complete loss of rotarod performance, seizures and in one case, lethality”. The “effects on inflammatory and acute nociceptive pain thresholds” value with mice [6] is “no effects on inflammatory and acute nociceptive pain thresholds”.
As to `CN(C)C1(CNC(=O)c2ccc3c(c2)CCN3C(=O)c2ccccc2)CCOCC1` [RPI-GLYT2-82, 1-benzoyl-N-((4-(dimethylamino)tetrahydro-2H-pyran-4-yl)methyl)indoline-5-carboxamide], the pIC50 on hGlyT2^W215F [2] is under 4.52. For the same compound, the “decrease in potency of inhibition vs WT” value at hGlyT2^D633E [3] was over 18 fold. Also, the “effect on GlyT1” value on hGlyT1^WT is listed as “minimal effect on GlyT1”. In addition, the “mechanism of inhibition” value at hGlyT2^WT [7] was “non-competitive inhibitor”. Also, the “washout” value on hGlyT2^W215F [5] (GlyT2^W215F) and on hGlyT2^D633E [8] was “almost immediate” each time. In addition, the “Cu,b, calculated unbound concentration in brain” value in series [9] is 597.89 nM. The “efficacy against mechanical allodynia vs vehicle” value in [10] (50 mg/kg i.p.) is “significant at 2 and 3 hours post-injection compared to vehicle”; in series [10] (100 mg/kg i.p.), “showed a similar trend at 2 and 3 hours”. In addition, the “anti-allodynia, time of maximum efficacy” value in series [10] (von Frey, 50 and 100 mg/kg i.p.) was “maximum efficacy between 90 min and 3 hours post-administration”. Moreover, the “time of peak anti-allodynia effects, cold allodynia” value in series [1] (50 and 100 mg/kg i.p.) is at most 2 h. Further, in series [1] (50 and 100 mg/kg i.p.), the “reduction of cold allodynia vs vehicle” value is “significantly reduced cold allodynia between 0.5 and 6-hours postinjection compared to vehicle”. Also, the “reduction of mechanical allodynia vs vehicle” value in series [11] is “significant at 90 minutes and 2-hours post-injection compared to vehicle”. The “neuromotor effects / muscle weakness” value in the series with naïve mice (50 mg/kg, rotarod, grip strength, sedation) is reported as “No deficits were observed; also recorded: not associated with adverse neuromotor effects or muscle weakness”. The “initial reduction in baseline rotarod performance” value with naïve mice (250 mg/kg i.p.) stood at 61%. Also, the “sedation” value with mice [12] is “transient sedation, which was most apparent in the first 15–30 minutes and fully recovered by 90 minutes”. The “respiration” value in the series on naïve, uninjured mice (50 mg/kg) was “did not change respiration frequency, minute volume (MVb), or tidal volume (TVb)”; in the series with naïve, uninjured mice (250 mg/kg i.p.), “transient changes in respiratory frequency and MVb in the first hour, and TVb in the first 30 min”. Moreover, the “conditioned place preference” value in the series on male C57BL/6 J mice (50 and 150 mg/kg i.p.) is “no significant preference”. The “displacement of 3H-BTCP from hDAT / inhibition” value at hDAT was ~ 20%. Moreover, the “displacement of 3H-nisoxetine from hNET / inhibition” value on hNET is listed as under 5%.
Turning to `CCCCCCCC/C=C\CCCCCCCC(=O)N[C@H](CCCCN)C(=O)O` [oleoyl-D-lysine], the “effects on inflammatory and acute nociceptive pain thresholds” value with mice [6] is “no effects on inflammatory and acute nociceptive pain thresholds”.
As to `CCCCOc1c(OC)cc(C(=O)NCC2(N(C)C)CCOCC2)cc1OC` [opiranserin], in the series on GlyT2, the pIC50 was 6.07.

In general, pIC50 refers to −log10 of the IC50, conventionally taken in molar units.
